Reference: patent publication US20090036420A1, “BENZAMIDE DERIVATIVES AND THEIR USE FOR TREATING CNS DISORDERS” (priority 2007, published 2009)

Target: T1, TAAR1 (Mus musculus, UniProt Q923Y8)
T1 construct: expressed in transfected cells; host or cells: HEK293 cells (ATCC #CRL-1573), stably transfected with pIRESneo2 expression plasmid; membrane preparation
Test: Radioligand binding assay on membranes of HEK293 cells stably expressing TAAR1
Details: Ki value (μM) in mouse, radioligand [3H]-rac-2-(1,2,3,4-tetrahydro-1-naphthyl)-2-imidazoline 60 nM, 4° C., 30 min
Method: The Expand High Fidelity PCR System (Roche Diagnostics) was used with 1.5 mM Mg^2+ and purified PCR products were cloned into pCR2.1-TOPO cloning vector (Invitrogen) following the instructions of the manufacturer. PCR products were subcloned into the pIRESneo2 vector (BD Clontech, Palo Alto, Calif.), and expression vectors were sequence verified before introduction in cell lines.
For the generation of stably transfected cell lines HEK293 cells were transfected with the pIRESneo2 expression plasmids containing the TAAR coding sequences (described above) with Lipofectamine 2000 (Invitrogen) according to the instructions of the manufacturer, and 24 hrs post transfection the culture medium was supplemented with 1 mg/ml G418 (Sigma, Buchs, Switzerland). After a culture period of about 10 d clones were isolated, expanded and tested for responsiveness to trace amines (all compounds purchased from Sigma) with the cAMP Biotrak Enzyme immunoassay (EIA) System (Amersham) following the non-acetylation EIA procedure provided by the manufacturer.
Cells at confluence were rinsed with ice-cold phosphate buffered saline without Ca^2+ and Mg^2+ containing 10 mM EDTA and pelleted by centrifugation at 1000 rpm for 5 min at 4° C. The pellet was then washed twice with ice-cold phosphate buffered saline and cell pellet was frozen immediately by immersion in liquid nitrogen and stored until use at −80° C. Cell pellet was then suspended in 20 ml HEPES-NaOH (20 mM), pH 7.4 containing 10 mM EDTA, and homogenized with a Polytron (PT 3000, Kinematica) at 10,000 rpm for 10 s. The homogenate was centrifuged at 48,000×g for 30 min at 4° C. and the pellet resuspended in 20 ml HEPES-NaOH (20 mM), pH 7.4 containing 0.1 mM EDTA (buffer A), and homogenized with a Polytron at 10,000 rpm for 10 s. The homogenate was then centrifuged at 48,000×g for 30 min at 4° C. and the pellet resuspended in 20 ml buffer A, and homogenized with a Polytron at 10,000 rpm for 10 s. Protein concentration was determined by the method of Pierce (Rockford, Ill.). […] Non-specific binding was defined as the amount of [^3H]-rac-2-(1,2,3,4-tetrahydro-1-naphthyl)-2-imidazoline bound in the presence of the appropriate unlabelled ligand (10 μM). Competing ligands were tested in a wide range of concentrations (10 pM-30 μM). […] Each experiment was performed in duplicate. All incubations were terminated by rapid filtration through UniFilter-96 plates (Packard Instrument Company) and glass filter GF/C, pre-soaked for at least 2 h in polyethylenimine 0.3%, and using a Filtermate 96 Cell Harvester (Packard Instrument Company). The tubes and filters were then washed 3 times with 1 ml aliquots of cold buffer B. Filters were not dried and soaked in Ultima gold (45 μl/well, Packard Instrument Company) and bound radioactivity was counted by a TopCount Microplate Scintillation Counter (Packard Instrument Company).

T1 sequence (Q923Y8 whole entry): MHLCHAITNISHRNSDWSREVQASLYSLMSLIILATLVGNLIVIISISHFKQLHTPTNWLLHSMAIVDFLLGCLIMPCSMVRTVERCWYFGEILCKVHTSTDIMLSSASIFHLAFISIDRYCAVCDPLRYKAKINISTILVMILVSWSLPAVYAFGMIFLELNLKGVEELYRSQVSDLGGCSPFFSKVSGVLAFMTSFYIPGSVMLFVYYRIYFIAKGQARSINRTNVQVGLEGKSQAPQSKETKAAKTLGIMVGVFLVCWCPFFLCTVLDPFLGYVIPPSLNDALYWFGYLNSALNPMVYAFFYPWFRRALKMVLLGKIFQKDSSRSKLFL

SMILES | Ki [µM]
COc1cccc(NC(=O)c2cnc(NCc3ccccc3)c(C(F)(F)F)c2)c1 [Example 199] | 0.0056
CCCCNc1ncc(C(=O)Nc2cccc(OC)c2)cc1Cl [Example 208] | 0.0463
CCCCNc1ncc(C(=O)Nc2cccc(Cl)c2)cc1Cl [Example 158, 6-Butylamino-5-chloro-N-(3-chloro-phenyl)-nicotinamide] | 0.008
COc1cccc(NC(=O)c2cnc(N3CCCCC3)c(Cl)c2)c1 [Example 206] | 0.0207

Same assay, conditions: radioligand [3H]-rac-2-(1,2,3,4-tetrahydro-1-naphthyl)-2-imidazoline 60 nM, 4° C., 30 min, read-out: Ki value (μM) in mouse

Ki [µM] | SMILES
0.009 | O=C(Nc1cccc(F)c1)c1ccc(N2CCCC2)c(C(F)(F)F)c1 [Example 185, N-(3-Fluoro-phenyl)-4-pyrrolidin-1-yl-3-trifluoro-methyl-benzamide]
0.0058 | COc1cccc(NC(=O)c2ccc(Cl)c(C(F)(F)F)c2)c1 [Example 216, 4-Chloro-N-(3-methoxy-phenyl)-3-trifluoromethyl-benzamide]
0.001 | CN1CCN(c2ncc(C(=O)Nc3cccc(Cl)c3)cc2Cl)CC1 [Example 164, 5-Chloro-N-(3-chloro-phenyl)-6-(4-methyl-piperazin-1-yl)-nicotinamide]
0.002 | COc1cccc(NC(=O)c2cnc(N3CCCC3)c(C(F)(F)F)c2)c1 [Example 179, N-(3-Methoxy-phenyl)-6-pyrrolidin-1-yl-5-trifluoromethyl-nicotinamide]
0.004 | COc1cccc(NC(=O)c2ccc(F)c(S(=O)(=O)N3CC(C)CC(C)C3)c2)c1 (racemic) [Example 167, (rac,meso)-3-(3,5-Dimethyl-piperidine-1-sulfonyl)-4-fluoro-N-(3-methoxy-phenyl)-benzamide]
0.039 | CCNc1ncc(C(=O)Nc2cccc(Cl)c2)cc1Cl [Example 156, 5-Chloro-N-(3-chloro-phenyl)-6-ethylamino-nicotinamide]
0.06 | O=C(Nc1cccc(Cl)c1)c1ccc(Cl)c(Cl)c1 [Example 283, 3,4-Dichloro-N-(3-chloro-phenyl)-benzamide]
0.007 | COc1cccc(NC(=O)c2ccc(N3CC(C)CC(C)C3)c(C(F)(F)F)c2)c1 (racemic) [Example 194, (rac,meso)-4-(3,5-Dimethyl-piperidin-1-yl)-N-(3-methoxy-phenyl)-3-trifluoromethyl-benzamide]
0.068 | Cc1cccc(C(=O)Nc2ccc(Cl)c(Cl)c2)c1 [Example 220, N-(3,4-Dichloro-phenyl)-3-methyl-benzamide]
0.008 | COc1cccc(NC(=O)c2cnc(Cl)c(C(F)(F)F)c2)c1 [Example 178, 6-Chloro-N-(3-methoxy-phenyl)-5-trifluoromethyl-nicotinamide]
0.021 | CCc1cccc(NC(=O)c2ccc(N3CCCC3)c(C(F)(F)F)c2)c1 [Example 180, N-(3-Ethyl-phenyl)-4-pyrrolidin-1-yl-3-trifluoromethyl-benzamide]
0.0674 | O=C(Nc1ccccc1)c1ccc([N+](=O)[O-])c(C(F)(F)F)c1 [Example 324, 4-Nitro-N-phenyl-3-trifluoromethyl-benzamide]
0.0348 | O=C(Nc1cccc(Cl)c1)c1cnc(N2CCNCC2)c(Cl)c1 [Example 210, 5-Chloro-N-(3-chloro-phenyl)-6-piperazin-1-yl-nicotinamide]
0.035 | COCCNc1ncc(C(=O)Nc2cccc(Cl)c2)cc1Cl [Example 153, 5-Chloro-N-(3-chloro-phenyl)-6-(2-methoxy-ethylamino)-nicotinamide]
0.016 | Cc1cccc(NC(=O)c2ccc(N3CCCC3)c(C(F)(F)F)c2)c1 [Example 189, 4-Pyrrolidin-1-yl-N-m-tolyl-3-trifluoro-methyl-benzamide]
0.0543 | O=C(Nc1ccccc1)c1ccc(Cl)c(Cl)c1 [Example 319, 3,4-Dichloro-N-phenyl-benzamide]
0.014 | O=C(Nc1cccc(Cl)c1)c1cnc(N2CCCC2)c(Cl)c1 [Example 154, 5-Chloro-N-(3-chloro-phenyl)-6-pyrrolidin-1-yl-nicotinamide]
0.027 | CC(C)Nc1ncc(C(=O)Nc2cccc(Cl)c2)cc1Cl [Example 152, 5-Chloro-N-(3-chloro-phenyl)-6-isopropylamino-nicotinamide]

More lines, now with the values behind:

SMILES | Ki [µM]
CNc1ncc(C(=O)Nc2cccc(Cl)c2)cc1Cl [Example 151, 5-Chloro-N-(3-chloro-phenyl)-6-methylamino-nicotinamide] | 0.096
COc1cccc(NC(=O)c2ccc(N3CCCC3)c(C(F)(F)F)c2)c1 [Example 137, N-(3-Methoxy-phenyl)-4-pyrrolidin-1-yl-3-trifluoromethyl-benzamide] | 0.002
COCCNc1ccc(C(=O)Nc2cccc(OC)c2)cc1C(F)(F)F [Example 139, 4-(2-Methoxy-ethylamino)-N-(3-methoxy-phenyl)-3-trifluoromethyl-benzamide] | 0.077
COc1cccc(NC(=O)c2ccc(N3CCC3)c(C(F)(F)F)c2)c1 [Example 140, 4-Azetidin-1-yl-N-(3-methoxy-phenyl)-3-trifluoromethyl-benzamide] | 0.016
COc1cccc(NC(=O)c2ccc(Nc3ccccc3)c([N+](=O)[O-])c2)c1 [Example 97, N-(3-Methoxy-phenyl)-3-nitro-4-phenylamino-benzamide] | 0.029
O=C(Nc1cccc(Br)c1)c1ccc(N2CCCC2)c(C(F)(F)F)c1 [Example 187, N-(3-Bromo-phenyl)-4-pyrrolidin-1-yl-3-trifluoro-methyl-benzamide] | 0.046
CCNc1ccc(C(=O)Nc2cccc(OC)c2)cc1C(F)(F)F [Example 148, 4-Ethylamino-N-(3-methoxy-phenyl)-3-trifluoromethyl-benzamide] | 0.022
COc1cccc(NC(=O)c2ccc(N3CCCCC3)c([N+](=O)[O-])c2)c1 [Example 94, N-(3-Methoxy-phenyl)-3-nitro-4-piperidin-1-yl-benzamide] | 0.012
COc1cccc(NC(=O)c2ccc(NCc3ccccc3)c(C(F)(F)F)c2)c1 [Example 147, 4-Benzylamino-N-(3-methoxy-phenyl)-3-trifluoromethyl-benzamide] | 0.005
COc1cccc(NC(=O)c2ccc(F)c(Cl)c2)c1 [Example 70, 3-Chloro-4-fluoro-N-(3-methoxy-phenyl)-benzamide] | 0.1
O=C(Nc1cccc(OC(F)F)c1)c1ccc(N2CCCC2)c(C(F)(F)F)c1 [Example 190, N-(3-Difluoro-methoxy-phenyl)-4-pyrrolidin-1-yl-3-trifluoro-methyl-benzamide] | 0.012
COc1cccc(NC(=O)c2ccc(N3CCCC3)c([N+](=O)[O-])c2)c1 [Example 93, N-(3-Methoxy-phenyl)-3-nitro-4-pyrrolidin-1-yl-benzamide] | 0.013
O=C(Nc1ccccc1)c1ccc(Cl)c(C(F)(F)F)c1 [Example 6, 4-Chloro-N-phenyl-3-trifluoromethyl-benzamide] | 0.098
COc1cccc(NC(=O)c2ccc(F)c([N+](=O)[O-])c2)c1 [Example 85, 4-Fluoro-N-(3-methoxy-phenyl)-3-nitro-benzamide] | 0.09
